These results are taken from patent US20230085307A1, “PYRIDAZINONE COMPOUND AND HERBICIDE” (NISSAN CHEMICAL CORPORATION, priority 2019, published 2023).

Structures are written as SMILES.

For data set [1], the system named is chickweed. As to the kind of experiment: Test Example 5: herbicidal effect by foliage application, plastic box (Table 20, symbol P). In kind it is in vivo, common chickweed (Stellaria media). The conditions noted are these: foliage application, 320 g/ha, evaluated three weeks after application. In outline:
(§1)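 Foliar spray test: emulsion formulation diluted in water to a set application rate, sprayed onto 14-day-old plants raised in diluvial soil at 25° C to 30° C under glass. Both herbicidal effect and crop effect rated visually three weeks later.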

Data set [2] concerns redroot pigweed. As to the kind of experiment: Test Example 5: herbicidal effect by foliage application, plastic box (Table 20, symbol N). The settings on record: foliage application, 320 g/ha, evaluated three weeks after application. The class given is in vivo, redroot pigweed (Amaranthus retroflexus). In outline:
as §1

The subject of data set [3] is Chinese sprangletop. Put plainly: Test Example 3: herbicidal effect by foliage application, Wagner pot (Table 18, symbol D). The settings on record: amount of applied herbicide 320 g/ha. In kind it is in vivo, chinese sprangletop (Leptochloa chinensis). In short, it runs like this:
(§2)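 Plants were sown in alluvial soil held under 0.1–0.5 cm standing water and grown 14 days in a greenhouse at 25–30 °C. An emulsifiable formulation, water-diluted to the set dose, was then sprayed onto the foliage, and effects were scored three weeks later using previously defined criteria.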

Data set [4] deals with wheat. As to the kind of experiment: Test Example 4: effect on crop by soil treatment (Table 19, symbol e). In kind it is in vivo. The settings on record: amount of applied herbicide 320 g/ha. The text has this: (§3) [Test Example 4] Herbicidal Effect Test by Soil Treatment
(§4) Sterilized diluvial soil was placed in a plastic box having a length of 21 cm, a width of 13 cm, and a depth of 7 cm. The seeds of each of southern crabgrass, green foxtail, barnyard grass, wild oat, blackgrass, Italian ryegrass, windgrass, velvetleaf, redroot pigweed, lambsquarters, chickweed, false cleavers, persian speedwell, corn, soybean, rice, wheat, beet, and rapeseed were sowed in a spot-like manner and covered with the soil having a thickness of about 1.5 cm. Subsequently, the emulsion agent of the compound of the present invention prepared according to Formulation Example 2 was diluted with water so as to achieve a predetermined herbicide amount, and the diluted emulsion agent was uniformly applied to the surface of the soil with a small-sized spray. The plastic box was placed in a greenhouse at 25° C. to 30° C. for growth of the plants. Three weeks after the herbicide application, the effect of the herbicide on each plant was evaluated according to the criteria of Test Example 1.

Data set [5] has as its system wheat. As to the kind of experiment: Test Example 5: effect on crop by foliage application, plastic box (Table 20, symbol e). In kind it is in vivo. The conditions noted are these: 320 g/ha, evaluated three weeks after application.
Text: (§5) [Test Example 5] Herbicidal Effect Test by Foliage Application
as §4, with “Thereafter, the plants were grown in a greenhouse at 25° C. to 30° C. After 14-day growth of the plants,” for “Subsequently,”, “a foliage part” for “the surface of the soil”, “spray.” for “spray. The plastic box was placed in a greenhouse at 25° C. to 30° C. for growth of the plants.”

The subject of data set [6] is barnyard grass. Put plainly: Test Example 4: herbicidal effect by soil treatment (Table 19, symbol H). In kind it is in vivo, barnyard grass (Echinochloa crus-galli). The conditions noted are these: amount of applied herbicide 320 g/ha. In outline: (§6)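 Step 1: sow seeds in sterilized diluvial soil, cover ~1.5 cm. Step 2: spray diluted emulsion onto soil surface at predetermined rate. Step 3: greenhouse, 25–30° C, three weeks. Step 4: grade effect on each plant by earlier criteria.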

Data set [7] has as its system blackgrass. Put plainly: Test Example 4: herbicidal effect by soil treatment (Table 19, symbol J). The conditions noted are these: amount of applied herbicide 320 g/ha. In kind it is in vivo, blackgrass (Alopecurus myosuroides). In outline: as §6
The test system of data set [8] is rice flat sedge. As to the kind of experiment: Test Example 3: herbicidal effect by foliage application, Wagner pot (Table 18, symbol E). In kind it is in vivo, rice flat sedge (Cyperus iria). The conditions noted are these: amount of applied herbicide 320 g/ha. In short, it runs like this: as §2
The subject of data set [9] is persian speedwell. Put plainly: Test Example 4: herbicidal effect by soil treatment (Table 19, symbol R). The settings on record: amount of applied herbicide 320 g/ha. In kind it is in vivo, Persian speedwell (Veronica persica). In outline:
as §6

Data set [10] concerns beet. As to the kind of experiment: Test Example 5: effect on crop by foliage application, plastic box (Table 20, symbol f). The class given is in vivo. The conditions noted are these: 320 g/ha, evaluated three weeks after application.
Text: as §5
as §4, with “Thereafter, the plants were grown in a greenhouse at 25° C. to 30° C. After 14-day growth of the plants,” for “Subsequently,”, “a foliage part” for “the surface of the soil”, “spray.” for “spray. The plastic box was placed in a greenhouse at 25° C. to 30° C. for growth of the plants.”

Data set [11] has as its system southern crabgrass. As to the kind of experiment: Test Example 5: herbicidal effect by foliage application, plastic box (Table 20, symbol F). In kind it is in vivo, southern crabgrass (Digitaria ciliaris). The conditions noted are these: foliage application, 320 g/ha, evaluated three weeks after application. In outline:
as §1

For data set [12], the system named is soybean. Put plainly: Test Example 4: effect on crop by soil treatment (Table 19, symbol d). The conditions noted are these: amount of applied herbicide 320 g/ha. In kind it is in vivo.
Text: as §3, §4

The test system of data set [13] is rapeseed. As to the kind of experiment: Test Example 4: effect on crop by soil treatment (Table 19, symbol g). The class given is in vivo. The settings on record: amount of applied herbicide 320 g/ha.
Text: as §3, §4

Data set [14] has as its system wild oat. Put plainly: Test Example 4: herbicidal effect by soil treatment (Table 19, symbol I). The conditions noted are these: amount of applied herbicide 320 g/ha. In kind it is in vivo, wild oat (Avena fatua). In outline:
as §6

For data set [15], the system named is blackgrass. As to the kind of experiment: Test Example 5: herbicidal effect by foliage application, plastic box (Table 20, symbol J). The class given is in vivo, blackgrass (Alopecurus myosuroides). The conditions noted are these: foliage application, 320 g/ha, evaluated three weeks after application. In outline: as §1
The test system of data set [16] is southern crabgrass. As to the kind of experiment: Test Example 4: herbicidal effect by soil treatment (Table 19, symbol F). In kind it is in vivo, southern crabgrass (Digitaria ciliaris). The settings on record: amount of applied herbicide 320 g/ha. In short, it runs like this:
as §6

In data set [17] the test system is soybean. Put plainly: Test Example 5: effect on crop by foliage application, plastic box (Table 20, symbol d). In kind it is in vivo. The settings on record: 320 g/ha, evaluated three weeks after application.
Text: as §5
as §4, with “Thereafter, the plants were grown in a greenhouse at 25° C. to 30° C. After 14-day growth of the plants,” for “Subsequently,”, “a foliage part” for “the surface of the soil”, “spray.” for “spray. The plastic box was placed in a greenhouse at 25° C. to 30° C. for growth of the plants.”

The test system of data set [18] is lambsquarters. Put plainly: Test Example 4: herbicidal effect by soil treatment (Table 19, symbol O). The class given is in vivo, lambsquarters (Chenopodium album). The settings on record: amount of applied herbicide 320 g/ha. In short, it runs like this: as §6
In data set [19] the test system is wild oat. Put plainly: Test Example 5: herbicidal effect by foliage application, plastic box (Table 20, symbol I). The class given is in vivo, wild oat (Avena fatua). The settings on record: foliage application, 320 g/ha, evaluated three weeks after application. In outline: as §1
Data set [20] deals with windgrass. Put plainly: Test Example 4: herbicidal effect by soil treatment (Table 19, symbol L). The class given is in vivo, windgrass (Apera spica-venti). The conditions noted are these: amount of applied herbicide 320 g/ha. In outline: as §6

Consider `COc1ccccc1-c1sc2ccc(C3CC3)cc2c1-c1c(O)c(C)nn(C)c1=O` [Compound No. 2-160, 4-(5-cyclopropyl-2-(2-methoxyphenyl)benzo[b]thiophen-3-yl)-5-hydroxy-2,6-dimethylpyridazin-3(2H)-one], for which the “herbicidal effect on P: chickweed (criteria 0-5)” value in [1] is on record as 5 (Herbicidal rate of 90% or more (almost completely withered)). For the same compound, the “herbicidal effect on N: redroot pigweed (criteria 0-5)” value in data set [2] is given as 5 (Herbicidal rate of 90% or more (almost completely withered)). In data set [3], the “herbicidal effect on D: Chinese sprangletop” value was 3 (Herbicidal rate of 40% or more and less than 70%). The “e: wheat, effect on crop rating” value in data set [4] is 0 (Herbicidal rate of 5% or less (almost no effect)). In data set [5], the “effect on crop e: wheat (criteria 0-5)” value is 1 (Herbicidal rate of 5% or more and less than 20%). In addition, the “H: barnyard grass, herbicidal effect rating” value in data set [6] is 0 (Herbicidal rate of 5% or less (almost no effect)). Besides, in data set [7], the “J: blackgrass, herbicidal effect rating” value is given as 0 (Herbicidal rate of 5% or less (almost no effect)). Further, in data set [8], the “herbicidal effect on E: rice flat sedge” value was 3 (Herbicidal rate of 40% or more and less than 70%). Also, the “R: persian speedwell, herbicidal effect rating” value in data set [9] is 1 (Herbicidal rate of 5% or more and less than 20%). Besides, the “effect on crop f: beet (criteria 0-5)” value in [10] is recorded as 5 (Herbicidal rate of 90% or more (almost completely withered)). Also, the “herbicidal effect on F: southern crabgrass (criteria 0-5)” value in data set [11] is given as 0 (Herbicidal rate of 5% or less (almost no effect)). For the same compound, in data set [12], the “d: soybean, effect on crop rating” value is given as 0 (Herbicidal rate of 5% or less (almost no effect)). In data set [13], the “g: rapeseed, effect on crop rating” value was 1 (Herbicidal rate of 5% or more and less than 20%). The “I: wild oat, herbicidal effect rating” value in data set [14] is on record as 0 (Herbicidal rate of 5% or less (almost no effect)). Also, in data set [15], the “herbicidal effect on J: blackgrass (criteria 0-5)” value was 4 (Herbicidal rate of 70% or more and less than 90%). Moreover, in data set [16], the “F: southern crabgrass, herbicidal effect rating” value is 0 (Herbicidal rate of 5% or less (almost no effect)). Further, in data set [17], the “effect on crop d: soybean (criteria 0-5)” value was 3 (Herbicidal rate of 40% or more and less than 70%). For the same compound, in data set [18], the “O: lambsquarters, herbicidal effect rating” value is given as 0 (Herbicidal rate of 5% or less (almost no effect)). In addition, the “herbicidal effect on I: wild oat (criteria 0-5)” value in [19] is given as 0 (Herbicidal rate of 5% or less (almost no effect)). For the same compound, in data set [20], the “L: windgrass, herbicidal effect rating” value was 3 (Herbicidal rate of 40% or more and less than 70%).
